Reference: PubChem BioAssay AID256 (DTP/NCI, 2004)
Toxic doses and inconclusive results are not listed. How the source made its calls: active means survival T/C of 150% or more; inactive means T/C below 125% in these data.

System: CD2F1 mice, L1210 leukemia ip, survival T/C
Experiment: NCI In Vivo Anticancer Drug Screen. Data for tumor model L1210 Leukemia (intraperitoneal) in CD2F1 (CDF1) mice
Details: higher = longer survival
How it was run: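 Antitumor effect is scored in animals hosting a serially transplanted tumor. Values compare compound-dosed animals against vehicle-only controls as a simple quotient.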

[1] = endpoint: mean survival time, dose: 100.0 mg/kg/injection, schedule: Q01DX001 (ip), vehicle: saline with Tween-80
[2] = endpoint: mean survival time, dose: 200.0 mg/kg/injection, schedule: Q01DX001 (ip), vehicle: saline with Tween-80
[3] = endpoint: mean survival time, dose: 400.0 mg/kg/injection, schedule: Q01DX001 (ip), vehicle: saline with Tween-80
[4] = endpoint: mean survival time, dose: 100.0 mg/kg/injection, schedule: Q01DX009 (ip), vehicle: saline with Tween-80
[5] = endpoint: mean survival time, dose: 200.0 mg/kg/injection, schedule: Q01DX009 (ip), vehicle: saline with Tween-80
[6] = endpoint: mean survival time, dose: 400.0 mg/kg/injection, schedule: Q01DX009 (ip), vehicle: saline with Tween-80
[7] = endpoint: mean survival time, dose: 100.0 mg/kg/injection, schedule: Q04DX003 (ip), vehicle: saline with Tween-80
[8] = endpoint: mean survival time, dose: 200.0 mg/kg/injection, schedule: Q04DX003 (ip), vehicle: saline with Tween-80
[9] = endpoint: mean survival time, dose: 400.0 mg/kg/injection, schedule: Q04DX003 (ip), vehicle: saline with Tween-80
[10] = endpoint: mean survival time, dose: 50.0 mg/kg/injection, schedule: Q01DX009 (ip), vehicle: saline with Tween-80
[11] = endpoint: mean survival time, dose: 100.0 mg/kg/injection, schedule: Q01DX001 (ip), vehicle: saline
[12] = endpoint: mean survival time, dose: 100.0 mg/kg/injection, schedule: Q04DX002 (ip), vehicle: saline with Tween-80
[13] = endpoint: mean survival time, dose: 200.0 mg/kg/injection, schedule: Q01DX001 (ip), vehicle: saline
[14] = endpoint: mean survival time, dose: 200.0 mg/kg/injection, schedule: Q04DX002 (ip), vehicle: saline with Tween-80
[15] = endpoint: mean survival time, dose: 400.0 mg/kg/injection, schedule: Q01DX001 (ip), vehicle: saline
[16] = endpoint: mean survival time, dose: 400.0 mg/kg/injection, schedule: Q04DX002 (ip), vehicle: saline with Tween-80
[17] = endpoint: mean survival time, dose: 100.0 mg/kg/injection, schedule: Q04DX003 (ip), vehicle: Klucel (hydroxypropylcellulose) (HPC)

Measured: T/C

COc1cccc2c1C(=O)c1c(O)c3c(c(O)c1C2=O)C[C@@](O)(/C(C)=N\NC(=O)CO)C[C@@H]3OC1CC(N)C(O)C(C)O1 (some centres undefined)
inactive: endpoint: mean survival time, dose: 0.25 mg/kg/injection, schedule: Q01DX009 (ip), vehicle: water 103 % of control | endpoint: mean survival time, dose: 0.5 mg/kg/injection, schedule: Q01DX009 (ip), vehicle: water 101 % of control | endpoint: mean survival time, dose: 0.78 mg/kg/injection, schedule: Q01DX009 (ip), vehicle: water 107 % of control | endpoint: mean survival time, dose: 1.0 mg/kg/injection, schedule: Q01DX009 (ip), vehicle: water 98 % of control | endpoint: mean survival time, dose: 1.0 mg/kg/injection, schedule: Q04DX003 (ip), vehicle: saline with Tween-80 115 % of control | endpoint: mean survival time, dose: 1.56 mg/kg/injection, schedule: Q01DX009 (ip), vehicle: water 107 % of control | endpoint: mean survival time, dose: 2.0 mg/kg/injection, schedule: Q01DX009 (ip), vehicle: water 106 % of control | endpoint: mean survival time, dose: 2.0 mg/kg/injection, schedule: Q04DX003 (ip), vehicle: saline with Tween-80 113 % of control | endpoint: mean survival time, dose: 3.13 mg/kg/injection, schedule: Q01DX009 (ip), vehicle: water 119 % of control | endpoint: mean survival time, dose: 4.0 mg/kg/injection, schedule: Q01DX009 (ip), vehicle: water 111 % of control | endpoint: mean survival time, dose: 4.0 mg/kg/injection, schedule: Q04DX003 (ip), vehicle: saline with Tween-80 117 % of control | endpoint: mean survival time, dose: 8.33 mg/kg/injection, schedule: Q04DX003 (ip), vehicle: saline 121 % of control | endpoint: mean survival time, dose: 12.5 mg/kg/injection, schedule: Q01DX009 (ip), vehicle: saline 101 % of control | endpoint: mean survival time, dose: 12.5 mg/kg/injection, schedule: Q01DX009 (ip), vehicle: water 115 % of control

NC(=O)N/N=C/COC(=O)c1ccccc1
inactive: [1] 93 % of control | [2] 91 % of control | [3] 98 % of control

Nc1ccc(C(=O)O)cc1S(=O)(=O)O
inactive: endpoint: mean survival time, dose: 25.0 mg/kg/injection, schedule: Q01DX001 (ip), vehicle: Klucel (hydroxypropylcellulose) (HPC) 96 % of control | endpoint: mean survival time, dose: 50.0 mg/kg/injection, schedule: Q01DX001 (ip), vehicle: Klucel (hydroxypropylcellulose) (HPC) 100 % of control | endpoint: mean survival time, dose: 100.0 mg/kg/injection, schedule: Q01DX001 (ip), vehicle: Klucel (hydroxypropylcellulose) (HPC) 107 % of control

O=C1/C(=C/c2ccccc2)Cc2ccccc21
inactive: [4] 94 % of control | [5] 91 % of control | [6] 89 % of control

Cc1ccc(Nc2ccc(O)c3c2C(=O)c2c(O)ccc(Nc4ccc(C)cc4)c2C3=O)cc1
inactive: [4] 88 % of control | [5] 88 % of control | [6] 98 % of control

CCOC(=O)c1cc(-c2ccc3ccccc3n2)c(O)c2cc3ccccc3nc12
inactive: [7] 93 % of control | [8] 87 % of control | [9] 90 % of control

CC/C=C(\CC)CO
inactive: [10] 100 % of control | [4] 95 % of control | [5] 100 % of control

CC1C=CC(C)S1 (centres undefined)
inactive: [11] 100 % of control | [12] 101 % of control | [13] 101 % of control | [14] 104 % of control | [15] 105 % of control | [16] 112 % of control

COC1OCC(C(C)=O)C(O)C1O (centres undefined)
inactive: [11] 101 % of control | [13] 96 % of control | [15] 95 % of control

CCc1ccc2ccccc2c1[N+](=O)[O-]
inactive: [1] 105 % of control | [2] 94 % of control | [3] 98 % of control

CCc1ccc(NC(=O)/C=C/c2ccccc2)cc1
inactive: [12] 93 % of control | [14] 89 % of control | [16] 104 % of control

Cc1ccc2c(C)nc(N=C(N)N)nc2c1
inactive: endpoint: mean survival time, dose: 18.8 mg/kg/injection, schedule: Q01DX009 (ip), vehicle: saline 103 % of control | endpoint: mean survival time, dose: 37.5 mg/kg/injection, schedule: Q01DX009 (ip), vehicle: saline 96 % of control

COC(=O)c1ccccc1NC(=S)NC(=O)COc1ccccc1
inactive: [4] 97 % of control | [5] 95 % of control | [6] 98 % of control

O=C(CCCN1CCC(O)(c2cccc(C(F)(F)F)c2)CC1)c1ccc(F)cc1
inactive: endpoint: mean survival time, dose: 12.5 mg/kg/injection, schedule: Q04DX003 (ip), vehicle: Klucel (hydroxypropylcellulose) (HPC) 95 % of control | endpoint: mean survival time, dose: 25.0 mg/kg/injection, schedule: Q04DX003 (ip), vehicle: Klucel (hydroxypropylcellulose) (HPC) 92 % of control | endpoint: mean survival time, dose: 50.0 mg/kg/injection, schedule: Q04DX003 (ip), vehicle: Klucel (hydroxypropylcellulose) (HPC) 98 % of control | [17] 97 % of control

N#CC(O)Cc1ccccc1 (centres undefined)
inactive: endpoint: mean survival time, dose: 5.0 mg/kg/injection, schedule: Q04DX003 (ip), vehicle: saline 98 % of control | endpoint: mean survival time, dose: 10.0 mg/kg/injection, schedule: Q04DX003 (ip), vehicle: saline 98 % of control

C#CCOC(=O)Nc1ccccc1Cl
inactive: [17] 93 % of control | endpoint: mean survival time, dose: 200.0 mg/kg/injection, schedule: Q04DX003 (ip), vehicle: Klucel (hydroxypropylcellulose) (HPC) 105 % of control | endpoint: mean survival time, dose: 400.0 mg/kg/injection, schedule: Q04DX003 (ip), vehicle: Klucel (hydroxypropylcellulose) (HPC) 98 % of control

C[As](C)[Se]CC1OC(O)C(O)C(O)C1O (centres undefined)
inactive: endpoint: mean survival time, dose: 12.5 mg/kg/injection, schedule: Q04DX003 (ip), vehicle: saline with Tween-80 97 % of control | endpoint: mean survival time, dose: 25.0 mg/kg/injection, schedule: Q04DX003 (ip), vehicle: saline with Tween-80 101 % of control | endpoint: mean survival time, dose: 50.0 mg/kg/injection, schedule: Q04DX003 (ip), vehicle: saline with Tween-80 98 % of control

CC1(C)C(=O)C2(I)CCC1C2 (centres undefined)
inactive: [7] 101 % of control | [8] 98 % of control | [9] 98 % of control

Cn1cc(C2NC(=O)c3ccccc3N2)c2ccccc21 (centres undefined)
inactive: endpoint: median survival time, dose: 100.0 mg/kg/injection, schedule: Q01DX009 (ip), vehicle: Klucel (hydroxypropylcellulose) (HPC) 119 % of control

CNC(=O)Nc1cccc(OS(=O)(=O)N(C)C)c1
inactive: [4] 92 % of control | [5] 95 % of control | [6] 95 % of control

O=C1CSC(=S)N1Cc1ccccc1
inactive: [7] 101 % of control | [8] 97 % of control | [9] 97 % of control

COC(=O)C1(C)CCCC2(C)C1CCC13OCC(CC21)C(=C(C)C)C3OC(C)=O (centres undefined)
inactive: [7] 100 % of control | [8] 95 % of control | [9] 100 % of control

O=[N+]([O-])c1ccc(Cl)c2c([N+](=O)[O-])cccc12
inactive: [10] 100 % of control | [4] 93 % of control | [5] 96 % of control

Cc1ccc([P+](Cc2ccccc2)(c2ccccc2)c2ccccc2)cc1
inactive: endpoint: mean survival time, dose: 5.0 mg/kg/injection, schedule: Q01DX001 (ip), vehicle: saline 108 % of control | endpoint: mean survival time, dose: 10.0 mg/kg/injection, schedule: Q01DX001 (ip), vehicle: saline 105 % of control | endpoint: mean survival time, dose: 20.0 mg/kg/injection, schedule: Q01DX001 (ip), vehicle: saline 96 % of control | endpoint: mean survival time, dose: 40.0 mg/kg/injection, schedule: Q01DX001 (ip), vehicle: saline 109 % of control
